Results from US8247211B2, “Glycopeptide antibiotics” (American Cyanamid Company, priority 2001, dated 2012).
Converted amounts (≈) assume the structure as drawn. One block for each compound: values may come before it. Numbered stars: 1 amine (or outer) side, 2 acyl side, 3 side chain; on linkers, the order of the positions; unused ones are H or OH. Square brackets hold non-standard residues; d marks the D form. Peptide text beside a SMILES is read from it. ξ: configuration not given here. X1 = N=C1NCC(C(O)C(N[*:1])C(=O)[*:2])N1C1OC(CO)C(O)C(O)C1O; ξEnduracididine(βξ-OH,4'ξ) = N=C1NCC(C(O)C(N)C(=O)O)N1

Legend:
Assay in all cases: In vitro antibacterial evaluation: minimum inhibitory concentration (MIC), broth dilution method
Assay type in all cases: cell-based
[1] = test system: Escherichia coli
[2] = test system: Staphylococcus sp.; details: 18 hours at 35° C.
How it was run: (§1)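 NCCLS M7-A2 broth dilution with Mueller-Hinton II, testing 64-0.06 μg/mL antibiotic against 5×10^5 CFU/mL inocula. Test strains include recent methicillin-, penicillin- or vancomycin-resistant clinical isolates. MIC is the lowest concentration preventing growth.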

[3] = test system: Escherichia coli; remark: listed apart in the source
How it was run: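 Following NCCLS approved standard M7-A2, compounds are serially diluted from 64 to 0.06 μg/mL in Muller-Hinton II […] and inoculated at 5×10^5 CFU/mL; the MIC is the minimum concentration at which growth is inhibited.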

[4] = test system: Streptococcus sp.; details: 18 hours at 35° C.
How it was run: as §1

[5] = test system: Enterococcus sp.
How it was run: as §1

MIC Escherichia coli (ATCC 25922) [1]: >0.5 µg/mL
MIC Coagulase Negative Staphylococcus (GC 4547) [2]: 2 µg/mL (≈ 1.4 µM)
MIC Coagulase Negative Staphylococcus (GC 4548) [2]: 2 µg/mL (≈ 1.4 µM)
MIC Coagulase Negative Staphylococcus (GC 4549) [2]: 2 µg/mL (≈ 1.4 µM)
MIC Coagulase Negative Staphylococcus (GC 4551) [2]: 4 µg/mL (≈ 2.8 µM)
MIC Coagulase Negative Staphylococcus (GC 6257) [2]: 1 µg/mL (≈ 0.7 µM)
MIC Staphylococcus aureus (ATCC 29213) [2]: 0.5 µg/mL (≈ 0.35 µM)
MIC Staphylococcus aureus (GC 1131) [2]: 0.5 µg/mL (≈ 0.35 µM)
MIC Staphylococcus aureus (GC 3051) [2]: 0.5 µg/mL (≈ 0.35 µM)
MIC Staphylococcus aureus (GC 3053) [2]: 0.5 µg/mL (≈ 0.35 µM)
MIC Staphylococcus aureus (GC 4541) [2]: 0.5 µg/mL (≈ 0.35 µM)
MIC Staphylococcus aureus (GC 4542) [2]: 0.5 µg/mL (≈ 0.35 µM)
MIC Staphylococcus aureus (GC 4544) [2]: 0.5 µg/mL (≈ 0.35 µM)
MIC Staphylococcus aureus (GC 4545) [2]: 0.5 µg/mL (≈ 0.35 µM)
MIC Staphylococcus aureus-SMITH (GC 4543) [2]: 0.5 µg/mL (≈ 0.35 µM)
MIC Escherichia coli (GC 4559) [3]: >0.5 µg/mL
MIC Escherichia coli (GC 4560) [3]: 0.5 µg/mL (≈ 0.35 µM)
MIC Streptococcus agalactiae (GC 4564) [4]: 1 µg/mL (≈ 0.7 µM)
MIC Streptococcus pneumoniae (ATCC 6301) ([4]; Streptococcus pneumoniae (ATCC 6301)): 0.25 µg/mL (≈ 0.175 µM)
MIC Streptococcus pneumoniae (GC 1894) ([4]; Streptococcus pneumoniae (GC 1894)): 0.25 µg/mL (≈ 0.175 µM)
MIC Streptococcus pneumoniae (GC 4565) ([4]; Streptococcus pneumoniae (GC 4565)): 0.5 µg/mL (≈ 0.35 µM)
MIC Streptococcus pyogenes (GC 4563) ([4]; Streptococcus pyogenes (GC 4563)): 0.12 µg/mL (≈ 0.084 µM)
MIC Enterococcus avium (GC 4558) [5]: 0.5 µg/mL (≈ 0.35 µM)
MIC Enterococcus faecalis (ATCC 29212) [5]: 0.5 µg/mL (≈ 0.35 µM)
MIC Enterococcus faecalis (GC 2242) ([5]; 18 hours at 35° C.): 0.5 µg/mL (≈ 0.35 µM)
MIC Enterococcus faecalis (GC 2691) ([5]; Enterococcus faecalis (GC 2691), 18 hours at 35° C.): 0.5 µg/mL (≈ 0.35 µM)
MIC Enterococcus faecalis (GC 3059) ([5]; Enterococcus faecalis (GC 3059), 18 hours at 35° C.): 0.5 µg/mL (≈ 0.35 µM)
MIC Enterococcus faecalis (GC 4552) ([5]; 18 hours at 35° C.): >0.5 µg/mL
MIC Enterococcus faecalis (GC 4553) [5]: 0.5 µg/mL (≈ 0.35 µM)
MIC Enterococcus faecalis (GC 4554) [5]: >0.5 µg/mL
MIC Enterococcus faecalis (GC 6189) [5]: 0.5 µg/mL (≈ 0.35 µM)
MIC Enterococcus faecium (GC 2243) [5]: 16 µg/mL (≈ 11.2 µM)
MIC Enterococcus faecium (GC 4556) [5]: 16 µg/mL (≈ 11.2 µM)
MIC Enterococcus faecium (GC 4557) [5]: 2 µg/mL (≈ 1.4 µM)
Compound: CC(c1ccccc1)C1NC(=O)CNC(=O)C(CO)NC(=O)C(C(O)C2CNC(=N)N2C2OC(CO)C(O)C(O)C2O)NC(=O)C(C(O)C2CNC(=N)N2)NC(=O)C(Cc2ccc(OC3OC(CO)C(OC4OC(COC(=O)NCc5ccccc5)C(O)C(O)C4O)C(O)C3O)cc2)NC1=O (stereo not drawn) [Example 257b, γ-O-[(Benzylamino)carbonyl]-cyclo[glycyl-β-methylphenylalanyl-O-(4-O-hexopyranosylhexopyranosyl)tyrosyl-3-(2-iminoimidazolidin-4-yl)seryl-3-(3-hexopyranosyl-2-iminoimidazolidin-4-yl)serylseryl]]
MIC Staphylococcus haemolyticus (GC 4546) [2]: 2 µg/mL (≈ 1.4 µM)

MIC Escherichia coli (ATCC 25922) [1]: >64 µg/mL
MIC Coagulase Negative Staphylococcus (GC 4547) [2]: >64 µg/mL
MIC Coagulase Negative Staphylococcus (GC 4548) [2]: >64 µg/mL
MIC Coagulase Negative Staphylococcus (GC 4549) [2]: >64 µg/mL
MIC Coagulase Negative Staphylococcus (GC 4551) [2]: >64 µg/mL
MIC Staphylococcus aureus (ATCC 29213) [2]: >64 µg/mL
MIC Staphylococcus aureus (GC 1131) [2]: >64 µg/mL
MIC Staphylococcus aureus (GC 4541) [2]: >64 µg/mL
MIC Staphylococcus aureus (GC 4542) [2]: >64 µg/mL
MIC Staphylococcus aureus (GC 4544) [2]: >64 µg/mL
MIC Staphylococcus aureus (GC 4545) [2]: >64 µg/mL
MIC Staphylococcus aureus-SMITH (GC 4543) [2]: >64 µg/mL
MIC Escherichia coli (GC 4559) [3]: >64 µg/mL
MIC Escherichia coli (GC 4560) [3]: >64 µg/mL
MIC Streptococcus agalactiae (GC 4564) [4]: >64 µg/mL
MIC Streptococcus pyogenes (ID-3187) ([4]; Streptococcus pyogenes (ID-3187)): >64 µg/mL
MIC Enterococcus avium (GC 4558) [5]: >64 µg/mL
MIC Enterococcus faecalis (ATCC 29212) [5]: >64 µg/mL
MIC Enterococcus faecalis (GC 2242) ([5]; 18 hours at 35° C.): >64 µg/mL
MIC Enterococcus faecalis (GC 4552) ([5]; 18 hours at 35° C.): >64 µg/mL
MIC Enterococcus faecalis (GC 4553) [5]: >64 µg/mL
MIC Enterococcus faecalis (GC 4554) [5]: >64 µg/mL
MIC Enterococcus faecium (GC 2243) [5]: >64 µg/mL
MIC Enterococcus faecium (GC 4556) [5]: >64 µg/mL
MIC Enterococcus faecium (GC 4557) [5]: >64 µg/mL
Compound: CC(c1ccc(F)cc1)C1NC(=O)CNC(=O)C(CO)NC(=O)C(C(O)C2CNC(=N)N2C2OC(CO)C(O)C(O)C2O)NC(=O)C(C(O)C2CNC(=N)N2)NC(=O)C(Cc2ccc(OC3OC(CO)C(OC4OC(CO)C(O)C(O)C4O)C(O)C3O)cc2)NC1=O (stereo not drawn) [Example 261a, Cyclo[glycyl-4-fluoro-β-methylphenylalanyl-O-(4-O-hexopyranosylhexopyranosyl)tyrosyl-3-(2-iminoimidazolidin-4-yl)seryl-3-(3-hexopyranosyl-2-iminoimidazolidin-4-yl)serylseryl]]
MIC Staphylococcus haemolyticus (GC 4546) [2]: >64 µg/mL

MIC Escherichia coli (ATCC 25922) [1]: 64 µg/mL (≈ 66.9 µM)
MIC Coagulase Negative Staphylococcus (GC 4547) [2]: 64 µg/mL (≈ 66.9 µM)
MIC Coagulase Negative Staphylococcus (GC 4547) ([2]; broth dilution): 64 µg/mL (≈ 66.9 µM)
MIC Coagulase Negative Staphylococcus (GC 4548) [2]: >64 µg/mL
MIC Coagulase Negative Staphylococcus (GC 4548) ([2]; broth dilution): >64 µg/mL
MIC Coagulase Negative Staphylococcus (GC 4549) [2]: 64 µg/mL (≈ 66.9 µM)
MIC Coagulase Negative Staphylococcus (GC 4549) ([2]; broth dilution): 64 µg/mL (≈ 66.9 µM)
MIC Coagulase Negative Staphylococcus (GC 4551) [2]: >64 µg/mL
MIC Coagulase Negative Staphylococcus (GC 4551) ([2]; broth dilution): >64 µg/mL
MIC Coagulase Negative Staphylococcus (GC 6257) [2]: 64 µg/mL (≈ 66.9 µM)
MIC Coagulase Negative Staphylococcus (GC 6257) ([2]; broth dilution): 64 µg/mL (≈ 66.9 µM)
MIC Staphylococcus aureus (ATCC 29213) [2]: >64 µg/mL
MIC Staphylococcus aureus (ATCC 29213) ([2]; broth dilution): >64 µg/mL
MIC Staphylococcus aureus (GC 1131) [2]: >64 µg/mL
MIC Staphylococcus aureus (GC 1131) ([2]; broth dilution): >64 µg/mL
MIC Staphylococcus aureus (GC 3051) [2]: >64 µg/mL
MIC Staphylococcus aureus (GC 3051) ([2]; broth dilution): >64 µg/mL
MIC Staphylococcus aureus (GC 3053) [2]: >64 µg/mL
MIC Staphylococcus aureus (GC 3053) ([2]; broth dilution): >64 µg/mL
MIC Staphylococcus aureus (GC 4541) [2]: >64 µg/mL
MIC Staphylococcus aureus (GC 4541) ([2]; broth dilution): >64 µg/mL
MIC Staphylococcus aureus (GC 4542) [2]: >64 µg/mL
MIC Staphylococcus aureus (GC 4542) ([2]; broth dilution): >64 µg/mL
MIC Staphylococcus aureus (GC 4544) [2]: >64 µg/mL
MIC Staphylococcus aureus (GC 4544) ([2]; broth dilution): >64 µg/mL
MIC Staphylococcus aureus (GC 4545) [2]: >64 µg/mL
MIC Staphylococcus aureus (GC 4545) ([2]; broth dilution): >64 µg/mL
MIC Staphylococcus aureus-SMITH (GC 4543) [2]: >64 µg/mL
MIC Staphylococcus aureus-SMITH (GC 4543) ([2]; broth dilution): >64 µg/mL
MIC Escherichia coli (GC 4559) [3]: 64 µg/mL (≈ 66.9 µM)
MIC Escherichia coli (GC 4560) [3]: 32 µg/mL (≈ 33.4 µM)
MIC Enterococcus avium (GC 4558) [5]: >64 µg/mL
MIC Enterococcus faecalis (ATCC 29212) [5]: >64 µg/mL
MIC Enterococcus faecalis (GC 4553) [5]: >64 µg/mL
MIC Enterococcus faecalis (GC 4554) [5]: >64 µg/mL
MIC Enterococcus faecalis (GC 6189) [5]: >64 µg/mL
MIC Enterococcus faecium (GC 2243) [5]: >64 µg/mL
MIC Enterococcus faecium (GC 4556) [5]: >64 µg/mL
MIC Enterococcus faecium (GC 4557) [5]: 64 µg/mL (≈ 66.9 µM)
Compound: N=C1NCC(C(O)C2NC(=O)C(Cc3ccc(O)cc3)NC(=O)C(Cc3ccccc3)NC(=O)CNC(=O)C(CO)NC(=O)C(C(O)C3CNC(=N)N3C3OC(CO)C(O)C(O)C3O)NC2=O)N1 (stereo not drawn) [Example 279a, Cyclo[glycylphenylalanyltyrosyl-3-(2-iminoimidazolidin-4-yl)seryl-3-(3-hexopyranosyl-2-iminoimidazolidin-4-yl)serylseryl]] (cyclo(GFY[ξEnduracididine(βξ-OH,4'ξ)][X1]S); configuration not given here)
MIC Staphylococcus haemolyticus (GC 4546) [2]: 64 µg/mL (≈ 66.9 µM)
MIC Staphylococcus haemolyticus (GC 4546) ([2]; broth dilution): 64 µg/mL (≈ 66.9 µM)
